This passage reports MIC results from patent publication US6297242A, “N-substituted amidine and guanidine oxazolidinone antibacterials and methods of use thereof” (Ortho-McNeil Pharmaceutical, Inc., priority 2000, dated 2001).

By MIC is commonly meant the least concentration at which growth counts as inhibited.

The subject of one test is MRSA OC2878. Nature of the test: NCCLS broth microdilution MIC, MRSA OC2878. The class given is cell-based, methicillin-resistant Staphylococcus aureus. Particulars: Staphylococcus aureus, cation adjusted Mueller-Hinton broth, 35° C., 16-20 hours. As for the experimental part:
(§1) Minimal inhibitory concentration (MIC) has been an indicator of in vitro antibacterial activity widely used in the art. The in vitro antimicrobial activity of the compounds was determined by the microdilution broth method following the test method from the National Committee for Laboratory Standards (NCCLS). This method is described in the NCCLS Document M7-A4, Vol.17, No.2, "Methods for Dilution Antimicrobial Susceptibility Test for Bacteria that Grow Aerobically-Fourth Edition", which is incorporated herein by reference.
(§2) In this method two-fold serial dilutions of drug in cation adjusted Mueller-Hinton broth are added to wells in microdilution trays. The test organisms are prepared by adjusting the turbidity of actively growing broth cultures so that the final concentration of test organism after it is added to the wells is approximately 5×10^4 CFU/well.
(§3) Following inoculation of the microdilution trays, the trays are incubated at 35° C. for 16-20 hours and then read. […] The amount of growth in the wells containing the test compound is compared with the amount of growth in the growth-control wells (no test compound) used in each tray. As set forth in Table 1, compounds of the present invention were tested against a variety of Gram positive and Gram negative pathogenic bacteria resulting in a range of activities, from 1 to ≥128 μg/mL depending on the organism tested.

The test system of the next test is S. aureus OC4172. Nature of the test: NCCLS broth microdilution MIC, S. aureus OC4172. The format is cell-based. Particulars: Staphylococcus aureus, cation adjusted Mueller-Hinton broth, 35° C., 16-20 hours. As for the experimental part: as §1, §2, §3
For orientation: Broth dilution looks for growth in wells or tubes with falling amounts of substance.

The next test deals with E. faecium OC3312. The test is described as follows: NCCLS broth microdilution MIC, E. faecium OC3312. The class given is cell-based. The note with it: Enterococcus faecium, cation adjusted Mueller-Hinton broth, 35° C., 16-20 hours. As for the experimental part:
as §1, §2, §3

In brackets after ≈: the same amount, converted by molar mass.

Take `CSC(=NC#N)NCC1CN(c2ccc(N3CCOCC3)c(F)c2)C(=O)O1` (stereo in doubt) [Cmpd 3, N-Cyano-N'-[[(5S)-3-[3-fluoro-4-(4-morpholinyl)phenyl]-2-oxo-5-oxazolidinyl]methyl]carbamimidothioic acid, methyl ester]: the MIC in the test with MRSA OC2878 was determined as 4 µg/mL (≈ 10.2 µM); against S. aureus OC4172, 4 µg/mL (≈ 10.2 µM); against E. faecium OC3312, 8 µg/mL (≈ 20.3 µM).

`CN=C(NC#N)NC[C@H]1CN(c2ccc(N3CCOCC3)c(F)c2)C(=O)O1` [Cmpd 1, N-Cyano-N'-[[(5S)-3-[3-fluoro-4-(4-morpholinyl)phenyl]-2-oxo-5-oxazolidinyl]methyl]-N"-methylguanidine]: the MIC worked out at 32 µg/mL (≈ 85 µM) against MRSA OC2878, 16 µg/mL (≈ 42.5 µM) against S. aureus OC4172 and 32 µg/mL (≈ 85 µM) in the test on E. faecium OC3312.

Consider `CC(=NC[C@H]1CN(c2ccc(N3CCOCC3)c(F)c2)C(=O)O1)NC#N` [Cmpd 2, N-Cyano-N'-[[(5S)-3-[3-fluoro-4-(4-morpholinyl)phenyl]-2-oxo-5-oxazolidinyl]methyl]ethanimidamide], for which the values for the MIC against MRSA OC2878, with S. aureus OC4172 and with E. faecium OC3312 were 1 µg/mL (≈ 2.77 µM), 2 µg/mL (≈ 5.53 µM) and 2 µg/mL (≈ 5.53 µM), respectively.

`CN(C)C(=NC#N)NC[C@H]1CN(c2ccc(N3CCOCC3)c(F)c2)C(=O)O1` [Cmpd 4, N-Cyano-N'-[[(5S)-3-[3-fluoro-4-(4-morpholinyl)phenyl]-2-oxo-5-oxazolidinyl]methyl]-N", N"-dimethylguanidine]: the MIC against MRSA OC2878 was 32 µg/mL (≈ 82 µM); in the test with S. aureus OC4172 it was 16 µg/mL (≈ 41 µM); with E. faecium OC3312 it was 64 µg/mL (≈ 164 µM).

With `CCCC(=NC#N)NC[C@H]1CN(c2ccc(N3CCOCC3)c(F)c2)C(=O)O1` [Cmpd 5, N-Cyano-N'-[[(5S)-3-[3-fluoro-4-(4-morpholinyl)phenyl]-2-oxo-5-oxazolidinyl]methyl]butyrimidate], the MIC in the test with MRSA OC2878, against S. aureus OC4172 and in the test with E. faecium OC3312 was 8 µg/mL (≈ 20.5 µM) each time.

Regarding `CC(=N)NC[C@H]1CN(c2ccc(N3CCOCC3)c(F)c2)C(=O)O1` [Cmpd 6], the values for the MIC in the test on MRSA OC2878, in the test on S. aureus OC4172 and in the test on E. faecium OC3312 were 128 µg/mL (≈ 381 µM), > 128 µg/mL and > 128 µg/mL, respectively.

With `CC(=O)N=C(C)NC[C@H]1CN(c2ccc(N3CCOCC3)c(F)c2)C(=O)O1` [Cmpd 7, N-Acetyl-N'-[[(5S)-3-[3-fluoro-4-(4-morpholinyl)phenyl]-2-oxo-5-oxazolidinyl]methyl]acetimidate], the MIC against MRSA OC2878 is 16 µg/mL (≈ 42.3 µM); in the test on S. aureus OC4172, 32 µg/mL (≈ 84.6 µM); against E. faecium OC3312, 64 µg/mL (≈ 169 µM).
